Laboratory results taken from patent US5968912A, “Methods for immunosuppressing” (Immune Modulation, Inc., priority 1997, dated 1999).

Key:
Assay type in all cases: cell-based, human
[1] = system: mononuclear leukocytes (Two-way MLR); test: Two-way mixed leukocyte reaction (MLR), 3H-thymidine incorporation; details: for inhibition at 1 µM / inhibition at 10 µM / inhibition at 100 µM / inhibition at 0.01 µM / inhibition at 0.1 µM: Homo sapiens, Leukocyte
[2] = system: Protein Kinase-C-Mediated T-cell Proliferation (PBMC); test: PK-C-mediated T-cell proliferation (PMA + A23187); details: PMA 1.25 ng/mL + A23187 0.25 μM; for Proliferation: 100 μM; for inhibition at 100 µM: Homo sapiens, T-cell
Description: Determination of the effect of HE-33 on PK-C-mediated signaling pathway
PBMC of a healthy volunteer were cultured in 96-well microtiter plates at 2×10^5 cells/well. […] Forskolin is an agent well known to increase intacellular cAMP levels by activating adenylate cyclase. Cultures were incubated for 3 days at 37° C. in a 5% CO2 incubator. Proliferative response was determined by incorporation of ^3 H-thymidine.. The results were expressed in CPM and % inhibition of proliferation (Table 7).

Interferon-gamma = Interferon-gamma production in PHA-stimulated PBMC cultures; parameters: % Inhibition of IFN-γ production: concentration or dose not given beside the values
Description: (§1) Production of autocrine growth factors (IL-2, IL-4, IL-10 and Interferon-gamma) in PHA-stimulated human PBMC cultures
(§2) Culture supernatants were collected at the times indicated and frozen at -20° C. At the end of 96 hr., all supernatants were assayed by enzyme immunoassay for the presence of the cytokines: interleukin-2, -4, -10 and interferon (IFN)-gamma. Results were expressed in pg/mL concentration of cytokine and % inhibition of cytokine production.

IL-2 = IL-2 production in PHA-stimulated PBMC cultures; parameters: % Inhibition of IL-2 production: concentration or dose not given beside the values
Description: as §1, §2

IL-10 = IL-10 production in PHA-stimulated PBMC cultures; parameters: % Inhibition of IL-10 production: concentration or dose not given beside the values
Description: as §1, §2

IL-4 = IL-4 production in PHA-stimulated PBMC cultures; parameters: % Inhibition of IL-4 production: concentration or dose not given beside the values
Description: as §1, §2

## CCN(CC)c1ncnc2c1ncn2[C@@H]1O[C@H](CO)[C@@H](O)[C@H]1O [Compound 1-50]
[1]
  inhibition at 1 µM: 13%
  inhibition at 10 µM: 45%
  inhibition at 100 µM: 88%

## CCCN(CCC)c1ncnc2c1ncn2[C@@H]1O[C@@H]2COP(=O)(O)O[C@H]2[C@H]1OS(=O)(=O)c1ccc(C)cc1 [Compound 1-15, N^6,N^6-di-n-Propyl-2'-O-tosyl-c-AMP]
[1]
  inhibition at 0.01 µM: 0%
  inhibition at 0.1 µM: 6%
  inhibition at 1 µM: 9%
  inhibition at 10 µM: 25%
  inhibition at 100 µM: 99.4%

## CCCN(CCC)c1ncnc2c1ncn2[C@@H]1O[C@H](CO)[C@@H](O)[C@H]1O [Compound 1-46]
[1]
  inhibition at 1 µM: 12%
  inhibition at 10 µM: 83%
  inhibition at 100 µM: 98%

## CCCCN(CCCC)c1ncnc2c1ncn2[C@@H]1O[C@@H]2COP(=O)(O)O[C@H]2[C@H]1O [Compound 1-24]
[2]
  Proliferation: 16 CPM
  inhibition at 100 µM: 98%
[1]
  inhibition at 0.01 µM: 0%
  inhibition at 0.1 µM: 27%
  inhibition at 1 µM: 78%
  inhibition at 10 µM: 97%
  inhibition at 100 µM: 100%
[1]; two-way MLR
  Inhibitory capacity on two-way MLR, in words: significant inhibitory capacity

## C=C[C@@]1(C)CC(=O)[C@]2(O)[C@@]3(C)[C@@H](O)CCC(C)(C)[C@@H]3[C@H](O)[C@H](OC(C)=O)[C@@]2(C)O1 [Forskolin, reference compound]
[2]
  Proliferation: 476 CPM
  inhibition at 100 µM: 55%
[1]
  inhibition at 0.01 µM: 20%
  inhibition at 0.1 µM: 28%
  inhibition at 1 µM: 31%
  inhibition at 10 µM: 55%
  inhibition at 100 µM: 60%

## CCCNc1ncnc2c1ncn2[C@@H]1O[C@@H]2COP(=O)(O)O[C@H]2[C@H]1O [Compound 1-16]
[1]
  inhibition at 0.01 µM: 0%
  inhibition at 0.1 µM: 2.2%
  inhibition at 1 µM: 12.5%
  inhibition at 10 µM: 90.7%
  inhibition at 100 µM: 99.8%

## Cc1ccc(S(=O)(=O)O[C@@H]2[C@@H]3OP(=O)(O)OC[C@H]3O[C@H]2n2cnc3c(N)ncnc32)cc1 [Compound 1-5, 2'-O-Tosyl-c-AMP]
[1]
  inhibition at 0.01 µM: 0%
  inhibition at 0.1 µM: 16%
  inhibition at 1 µM: 25%
  inhibition at 10 µM: 24%
  inhibition at 100 µM: 58%

## CCCCN(CCCC)c1ncnc2c1ncn2[C@@H]1O[C@@H]2COP(=O)(O)O[C@H]2[C@H]1OS(=O)(=O)c1ccc(C)cc1 [Compound 1-22]
[1]
  inhibition at 0.01 µM: 0%
  inhibition at 0.1 µM: 7%
  inhibition at 1 µM: 4%
  inhibition at 10 µM: 0%
  inhibition at 100 µM: 99%

## CCCN(CCC)c1ncnc2c1nc(SCc1ccccc1)n2[C@@H]1O[C@@H]2COP(=O)(O)O[C@H]2[C@H]1O [Compound 1-42]
[1]
  inhibition at 1 µM: 0%
  inhibition at 10 µM: 31%
  inhibition at 100 µM: 89%

## CCCC(=O)Nc1ncnc2c1ncn2[C@@H]1O[C@@H]2COP(=O)(O)O[C@H]2[C@H]1OC(=O)CCC [dbcAMP, reference compound]
[2]
  Proliferation: 645 CPM
  inhibition at 100 µM: 38%

## C=CC[C@@H]1/C=C(\C)C[C@H](C)C[C@H](OC)[C@H]2O[C@@](O)(C(=O)C(=O)N3CCCC[C@H]3C(=O)O[C@H](/C(C)=C/[C@@H]3CC[C@@H](O)[C@H](OC)C3)[C@H](C)[C@@H](O)CC1=O)[C@H](C)C[C@@H]2OC [Fk506, reference compound]
Interferon-gamma; 24 hours
  % Inhibition of IFN-γ production: 100%
  IFN-γ production: 0 pg/mL
Interferon-gamma; 48 hours
  % Inhibition of IFN-γ production: 98%
  IFN-γ production: 155 pg/mL
Interferon-gamma; 72 hours
  % Inhibition of IFN-γ production: 92%
  IFN-γ production: 232 pg/mL
Interferon-gamma; 96 hours
  % Inhibition of IFN-γ production: 96%
  IFN-γ production: 225 pg/mL
IL-2; 24 hours
  % Inhibition of IL-2 production: 100%
  IL-2 production: 0.7 pg/mL
IL-2; 48 hours
  % Inhibition of IL-2 production: 97%
  IL-2 production: 16 pg/mL
IL-2; 72 hours
  % Inhibition of IL-2 production: 91%
  IL-2 production: 16 pg/mL
IL-2; 96 hours
  % Inhibition of IL-2 production: 0%
  IL-2 production: 23 pg/mL
IL-10; 24 hours
  % Inhibition of IL-10 production: 69%
  IL-10 production: 173 pg/mL
IL-10; 48 hours
  % Inhibition of IL-10 production: 77%
  IL-10 production: 235 pg/mL
IL-10; 72 hours
  % Inhibition of IL-10 production: 61%
  IL-10 production: 228 pg/mL
IL-10; 96 hours
  % Inhibition of IL-10 production: 76%
  IL-10 production: 200 pg/mL
IL-4; 24 hours
  % Inhibition of IL-4 production: 98%
  IL-4 production: 18 pg/mL
IL-4; 48 hours
  % Inhibition of IL-4 production: 99%
  IL-4 production: 17 pg/mL
IL-4; 72 hours
  % Inhibition of IL-4 production: 99%
  IL-4 production: 10 pg/mL
IL-4; 96 hours
  % Inhibition of IL-4 production: 93%
  IL-4 production: 10 pg/mL
